pIC50: −log10 of the molar value.
Experiments:
[1] = molecular target: Lysophosphatidic acid receptor 1 (Homo sapiens, UniProt Q92633); experiment: LPAR1 Calcium Flux Assays: A cDNA encoding the human LPAR1 receptor is synthesized and cloned into pDNA3 expression plasmid. The plasmid is transfected in U937 cells using Lipofectamine 2000 (Invitrogen Corp., USA). Clones stably expressing human LPAR1 are selected using […] and identified as cells that show Ca-influx in response to LPA.U937 cells overexpressing human LPAR1 are seeded at 100,000 cells per well in a 96-well fibronectin (10 ug/ml) coated plate in 60 μl of assay buffer (HBSS containing 20 mM HEPES and 0.2% BSA) and then incubated for 60 minutes. Then 50 μl of a calcium indicator dye (Fluo-4 NW, Molecular Probes) are added to each well and incubation continued for 30 minutes at 37° C. and then 30 minutes at room temperature. 50 μl of test compounds in 4% DMSO are added to the cells and incubation continued at room temperature for 40 minutes. Cells are the stimulated by the addition of 50 μl of 128 nM LPA and intracellular calcium is measured using the FLIPR TETRA (Molecular Devices). IC50 values are determined using “Genedata Screener” analysis tool.; assay type: cell-based
[2] = molecular target: T1, Lysophosphatidic acid receptor 3 (Homo sapiens, UniProt Q9UBY5); experiment: LPAR3 Calcium Flux Assays: A cDNA encoding the human LPAR3 receptor is synthesized and cloned into pDNA3 expression plasmid. The plasmid is transfected in U2OS cells using Lipofectamine 2000 (Invitrogen Corp., USA). Clones stably expressing human LPAR3 are selected using neomycin and identified as cells that show Ca-influx in response to LPA.U2OS cells overexpressing human LPAR3 are seeded at 20,000-40,000 cells per well in a 96-well poly-D-lysine coated plate one day before the assay. Prior to the assay, the cells are washed once with assay buffer (HBSS containing 20 mM HEPES and 0.2% BSA) and then incubated in 50 μl of assay buffer for 60 minutes. Then 50 μl of a calcium indicator dye (Fluo-4 NW, Molecular Probes) are added to each well and incubation is continued for 30 minutes at 37° C. and then 30 minutes at room temperature. 50 μl of test compounds in 4% DMSO are added to the cells and incubation continued at room temperature for 40 minutes. Cells are stimulated by the addition of 50 μl of 128 nM LPA and intracellular calcium is measured using the FLIPR TETRA (Molecular Devices). IC50 values are determined using “Genedata Screener” analysis tool.; assay type: cell-based
T1 sequence (Q9UBY5 whole entry): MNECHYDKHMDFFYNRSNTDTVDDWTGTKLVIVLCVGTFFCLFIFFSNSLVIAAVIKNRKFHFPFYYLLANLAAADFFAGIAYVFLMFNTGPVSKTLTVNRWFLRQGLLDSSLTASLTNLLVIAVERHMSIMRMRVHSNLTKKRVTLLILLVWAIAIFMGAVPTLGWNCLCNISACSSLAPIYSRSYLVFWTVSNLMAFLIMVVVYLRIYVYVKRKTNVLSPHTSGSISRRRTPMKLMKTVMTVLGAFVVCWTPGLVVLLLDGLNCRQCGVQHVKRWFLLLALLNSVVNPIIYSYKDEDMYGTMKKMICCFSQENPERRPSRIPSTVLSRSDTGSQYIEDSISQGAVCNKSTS

Chain of Lysophosphatidic acid receptor 1 (Q92633 whole entry): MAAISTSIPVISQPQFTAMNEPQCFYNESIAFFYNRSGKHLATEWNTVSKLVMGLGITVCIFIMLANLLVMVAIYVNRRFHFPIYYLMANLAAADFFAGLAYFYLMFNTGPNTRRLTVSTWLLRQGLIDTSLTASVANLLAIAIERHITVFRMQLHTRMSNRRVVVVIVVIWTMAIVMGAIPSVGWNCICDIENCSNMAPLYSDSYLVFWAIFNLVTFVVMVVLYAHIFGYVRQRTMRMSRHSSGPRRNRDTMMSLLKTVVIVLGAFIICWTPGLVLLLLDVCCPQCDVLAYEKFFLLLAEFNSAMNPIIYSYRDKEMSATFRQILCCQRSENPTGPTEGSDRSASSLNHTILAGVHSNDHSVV

Cn1ncc(-c2ccc(-c3ccc(C4(C(=O)O)CC4)c(C(F)(F)F)c3)cn2)c1Nc1cncc(OC2CC2)n1
pIC50 [1]: 7.66
pIC50 [2]: < 5.00

From ChEMBL document CHEMBL5729160, “Lysophosphatidic acid receptor 1 (LPAR1) inhibitor compounds” (2022)
